# Experimental data reported in US10010539B2, “Pyrazole, triazole and tetrazole orexin receptor antagonists” (MERCK SHARP & DOHME CORP., priority 2014, dated 2018).
# How the values were obtained:
# human orexin-2 receptor = human orexin-2 receptor (Homo sapiens (Human), UniProt O43614); test: FLIPR Ca2+ Flux Assay, orexin-2 receptor (hOX2R FLIPR); format: cell-based; details: CHO cells expressing the human orexin-2 receptor; agonist 70 pM Ala-6,12 human orexin-A
# Summary of the method: (§1)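 Antagonism is measured as loss of the intracellular Ca2+ signal that 70 pM Ala-6,12 human orexin-A triggers in dye-loaded CHO cells expressing rat OX1R or human OX2R. Compounds are given 5 min beforehand, and IC50 is taken as 50% inhibition of the agonist peak.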
# [1] = target: hOXIR (orexin-1 receptor) (Homo sapiens, UniProt O43613); test: FLIPR Ca2+ Flux Assay, orexin-1 receptor (hOXIR FLIPR); format: cell-based; details: CHO cells expressing the orexin-1 receptor (method text: rat; table head: hOXIR); agonist 70 pM Ala-6,12 human orexin-A
# Summary of the method: as §1
# human orexin-2 receptor, sequence (O43614 whole entry): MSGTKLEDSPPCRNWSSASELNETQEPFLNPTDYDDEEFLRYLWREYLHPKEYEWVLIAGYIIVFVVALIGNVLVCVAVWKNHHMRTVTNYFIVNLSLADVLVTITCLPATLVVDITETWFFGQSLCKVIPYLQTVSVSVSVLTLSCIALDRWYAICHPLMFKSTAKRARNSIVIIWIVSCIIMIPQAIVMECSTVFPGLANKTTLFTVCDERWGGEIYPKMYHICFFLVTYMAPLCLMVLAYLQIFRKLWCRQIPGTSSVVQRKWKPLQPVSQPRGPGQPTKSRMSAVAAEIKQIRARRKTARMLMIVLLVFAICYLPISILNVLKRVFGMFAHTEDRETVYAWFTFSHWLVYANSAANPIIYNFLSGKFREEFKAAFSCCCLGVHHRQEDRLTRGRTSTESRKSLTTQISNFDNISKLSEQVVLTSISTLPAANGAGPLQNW
SMILES,IC50 (human orexin-2 receptor) [µM],IC50 [1] [µM]
"Cc1cccc(-n2nccn2)c1C(=O)N1C[C@H](n2ncc(C(C)(C)O)n2)CC[C@H]1C [Example 53, 2-{2-[(3R,6R)-6-methyl-1-{[2-methyl-6-(2H-1,2,3-triazol-2-yl)phenyl]carbonyl}piperidin-3-yl]-2H-1,2,3-triazol-4-yl}propan-2-ol]",0.0311,1.81
"Cc1nc(-c2ccc(F)cc2C(=O)N2C[C@H](n3ncc(C(C)(C)O)n3)CC[C@H]2C)no1 [Example 30, (5-Fluoro-2-(5-methyl-1,2,4-oxadiazol-3-yl)phenyl)((2R,5R)-5-(4-(2-hydroxypropan-2-yl)-2H-1,2,3-triazol-2-yl)-2-methylpiperidin-1-yl)methanone]",0.139,> 10
"Cc1noc(-c2cc(F)ccc2C(=O)N2C[C@H](n3ncc(C(C)(C)O)n3)CC[C@H]2C)n1 [Example 41, 2-{2-[(3R,6R)-1-{[4-fluoro-2-(3-methyl-1,2,4-oxadiazol-5-yl)phenyl]carbonyl}-6-methylpiperidin-3-yl]-2H-1,2,3-triazol-4-yl}propan-2-ol]",0.173,> 10
"COc1ccc(C(=O)N2C[C@H](n3cc(C(C)(C)O)cn3)CC[C@H]2C)c(C2CC2)n1 [Example 96, 2-(1-{(3R,6R)-1-[(2-Cyclopropyl-6-methoxypyridin-3-yl)carbonyl]-6-methylpiperidin-3-yl}-1H-pyrazol-4-yl)propan-2-ol]",1.6,> 10
